Like-named read-outs stand apart in the source and are kept apart here.
Legend:
Assay type in all cases: in vivo
Glycine max (GLXMA) [1] = assay: Post-emergence crop plant compatibility, GLXMA; settings: post-emergence, 20 g/ha, effect in comparison to untreated controls
Method: Seeds of monocotyledonous and dicotyledonous weeds and crop plants are placed in sandy loam in plastic or organic planting pots, covered with soil and cultivated in a greenhouse under controlled growth conditions. 2 to 3 weeks after sowing, the test plants are treated at the one-leaf stage. The compounds of the invention, formulated in the form of wettable powders (WP) or as emulsion concentrates (EC), are then sprayed onto the green parts of the plants as aqueous suspension or emulsion with addition of 0.5% additive at a water application rate of 600 l/ha (converted). After the test plants have been kept in the greenhouse under optimum growth conditions for about 3 weeks, the activity of the preparations is rated visually in comparison to untreated controls. For example, 100% activity=the plants have died, 0% activity=like control plants.
The observed effects on selected crop plants are reported here in comparison to the untreated controls (values in %). The appendices “a”, “b” and “c” give differentiation by dosage used with otherwise the same crop plants tested.

[2] = tested on: Pharbitis purpurea (PHBPU); assay: Post-emergence herbicidal action against PHBPU; settings: dosage 320 g/ha
In short: (§1)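 Doses of 320 g/ha or lower, suffixes a, b and c marking different dosages, were applied post-emergence at the one-leaf stage in 600 l/ha water with 0.5% additive. Damage was assessed visually after about 3 weeks in the greenhouse.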

[3] = tested on: Verconica persica (VERPE); assay: Post-emergence herbicidal action against VERPE; settings: 320 g/ha, VERPE
In short: as §1

Zea mays (ZEAMX) [4] = settings: for Post-emergence action against ZEAMX in % (crop plant compatibility): 20 g/ha, effect in comparison to untreated controls
In short: (§2)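 Test crops were treated 2 to 3 weeks after sowing, once they reached one leaf, by spraying compound in water with 0.5% additive at 600 l/ha. Visual scoring compared them with untreated controls roughly 3 weeks on, and appendices a, b and c denote different doses.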

[5] = tested on: Triticum aestivum (TRZAS); settings: crop plant compatibility, effect vs untreated controls
In short: as §2

Viola tricolor (VIOTR) [6] = assay: Post-emergence herbicidal action against VIOTR; settings: 320 g/ha
In short: as §1

[7] = tested on: Abutilon theophrasti (ABUTH); assay: Post-emergence herbicidal action against ABUTH; settings: 320 g/ha, visual rating about 3 weeks after treatment vs untreated controls (100% = plants have died, 0% = like control plants)
In short: as §1

[8] = tested on: Polygonum convolvulus (POLCO); assay: Post-emergence herbicidal action against POLCO; settings: dosage 320 g/ha
In short: as §1

[9] = tested on: Amaranthus retroflexus (AMARE); assay: Pre-emergence herbicidal action against AMARE; settings: visual scoring after about 3 weeks vs untreated controls
In short: (§3)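 Application rates ran to 320 g/ha or lower, with several dosages tested on the same weeds. The compound, as wettable powder or emulsion concentrate, is sprayed pre-emergence onto soil over sown seeds; greenhouse growth follows, and effect is rated visually after roughly 3 weeks.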

Setaria viridis (SETVI) [10] = assay: Pre-emergence herbicidal action against SETVI; settings: dosage 320 g/ha
In short: as §3

[11] = tested on: Alopecurus myosuroides (ALOMY); assay: Post-emergence herbicidal action against ALOMY; settings: visual rating about 3 weeks after treatment vs untreated controls (100% = plants have died, 0% = like control plants)
In short: as §1

Viola tricolor (VIOTR) [12] = assay: Pre-emergence herbicidal action against VIOTR; settings: 320 g/ha, Viola tricolor
In short: as §3

Setaria viridis (SETVI) [13] = assay: Post-emergence herbicidal action against SETVI
In short: as §1

[14] = tested on: Digitaria sanguinalis (DIGSA); assay: Post-emergence herbicidal action against DIGSA; settings: visual rating about 3 weeks after treatment
In short: as §1

Avena fatua (AVEFA) [15] = assay: Post-emergence herbicidal action against AVEFA; settings: visual rating about 3 weeks after treatment
In short: as §1

[16] = tested on: Digitaria sanguinalis (DIGSA); assay: Pre-emergence herbicidal action against DIGSA
In short: as §3

Lolium rigidum (LOLRI) [17] = assay: Pre-emergence herbicidal action against LOLRI; settings: dosage 320 g/ha
In short: as §3

Avena fatua (AVEFA) [18] = assay: Pre-emergence herbicidal action against AVEFA; settings: 320 g/ha, visual scoring after about 3 weeks vs untreated controls
In short: as §3

[19] = tested on: Alopecurus myosuroides (ALOMY); assay: Pre-emergence herbicidal action against ALOMY; settings: scored visually after about 3 weeks, 100% = plants have died
In short: as §3

Lolium rigidum (LOLRI) [20] = assay: Post-emergence herbicidal action against LOLRI; settings: dosage 320 g/ha
In short: as §1

Glycine max (GLXMA) [21] = settings: crop plant compatibility
In short: (§4)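 Crop injury rated visually in percent against untreated plants roughly 3 weeks after treatment (0% no effect, 100% plants dead). Compounds, as WP or EC with 0.5% additive in 600 l/ha water, were applied to the covering soil right after sowing; greenhouse growth. Suffixes a, b, c denote different dosages.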

Zea mays (ZEAMX) [22] = settings: 20 g/ha; crop plant compatibility, effect vs untreated controls
In short: as §4

Oryza sativa (ORYSA) [23] = settings: crop plant compatibility
In short: as §4

Brassica napus (BRSNW) = settings: crop plant compatibility, in comparison to untreated controls
In short: as §4

[24] = tested on: Triticum aestivum (TRZAS); settings: crop plant compatibility
In short: as §4

Oryza sativa (ORYSA) [25] = settings: crop plant compatibility; remark: listed apart in the source
In short: as §2

[26] = tested on: Verconica persica (VERPE); assay: Pre-emergence herbicidal action against VERPE; settings: dosage 320 g/ha
In short: as §3

[27] = tested on: Polygonum convolvulus (POLCO); assay: Pre-emergence herbicidal action against POLCO; settings: dosage 320 g/ha
In short: as §3

[28] = tested on: Matricaria inodora (MATIN); assay: Pre-emergence herbicidal action against MATIN
In short: as §3

[29] = tested on: Abutilon theophrasti (ABUTH); assay: Pre-emergence herbicidal action against ABUTH; settings: Dosage column 320 g/ha (title prints 3200 g/ha); scored visually after about 3 weeks; 100% = plants have died
In short: as §3

[30] = tested on: Echinochloa crus-galli (ECHCG); assay: Pre-emergence herbicidal action against ECHCG; settings: dosage 320 g/ha
In short: as §3

[31] = 20 g/ha, effect vs untreated controls
[32] = pre-emergence, 80 g/ha, in comparison to untreated controls

COC(=O)CCOC(=O)COc1nn(-c2ccccn2)c(-c2ccc(F)nc2)c1C1CC1(F)F (centres unmarked) [Example I-261]
80%: Post-emergence action against PHBPU in % [2] | Post-emergence action against VERPE in % [3] | Post-emergence action against VIOTR in % (Viola tricolor (VIOTR) [6]) | Post-emergence action against ABUTH in % [7] | Post-emergence action against POLCO in % [8]
0%: Post-emergence action against GLXMA in % (Glycine max (GLXMA) [1]) | Post-emergence action against ZEAMX in % (crop plant compatibility) (Zea mays (ZEAMX) [4]) | Post-emergence action against ZEAMX in % (Zea mays (ZEAMX) [4]; crop plant compatibility, 80 g/ha, effect vs untreated controls) | Post-emergence action against TRZAS in % ([5]; 20 g/ha) | Post-emergence action against TRZAS in % ([5]; 80 g/ha)

C[C@@H](Oc1nn(-c2ccc(F)cn2)c(-c2cncc(F)c2)c1Br)C(=O)O [Example I-13]
20%: Pre-emergence action against BRSNW in % (Brassica napus (BRSNW); 320 g/ha) | Pre-emergence action against TRZAS in % [24, 32]
100%: Pre-emergence action against AMARE in % ([9]; 320 g/ha) | Pre-emergence action against DIGSA in % ([16]; 80 g/ha, visual scoring after about 3 weeks vs untreated controls) | Pre-emergence action against DIGSA in % ([16]; dosage 320 g/ha) | Pre-emergence action against ALOMY ([19]; 320 g/ha) | Pre-emergence action against POLCO in % [27]
0%: Pre-emergence action against ORYSA (Oryza sativa (ORYSA) [23]; [31]) | Post-emergence action against ZEAMX in % (crop plant compatibility) (Zea mays (ZEAMX) [4]) | Post-emergence action against ORYSA in % (Oryza sativa (ORYSA) [25]; [31])
80%: Post-emergence action against SETVI in % (Setaria viridis (SETVI) [13]; dosage 80 g/ha) | Post-emergence action against AVEFA in % (Avena fatua (AVEFA) [15]; 80 g/ha) | Post-emergence action against VERPE in % [3] | Pre-emergence action against VERPE in % [26] | Post-emergence action against VIOTR in % (Viola tricolor (VIOTR) [6]) | Pre-emergence action against MATIN in % ([28]; dosage 80 g/ha) | Pre-emergence action against MATIN in % ([28]; dosage 320 g/ha)
10%: Pre-emergence action against GLXMA (Glycine max (GLXMA) [21]; [31]) | Pre-emergence action against GLXMA in % (Glycine max (GLXMA) [21]; [32]) | Pre-emergence action against ZEAMX (Zea mays (ZEAMX) [22]) | Pre-emergence action against ORYSA in % (Oryza sativa (ORYSA) [23]; [32]) | Pre-emergence action against BRSNW in % (Brassica napus (BRSNW); 20 g/ha) | Pre-emergence action against BRSNW in % (Brassica napus (BRSNW); 80 g/ha) | Pre-emergence action against TRZAS [24, 31] | Post-emergence action against ORYSA in % (Oryza sativa (ORYSA) [25]; 80 g/ha, effect in comparison to untreated controls)
90%: Pre-emergence action against AMARE in % ([9]; 80 g/ha) | Pre-emergence action against SETVI in % (Setaria viridis (SETVI) [10]) | Post-emergence action against ALOMY in % ([11]; 80 g/ha) | Post-emergence action against ALOMY in % ([11]; 320 g/ha) | Pre-emergence action against VIOTR in % (Viola tricolor (VIOTR) [12]) | Post-emergence action against SETVI in % (Setaria viridis (SETVI) [13]; dosage 320 g/ha) | Post-emergence action against DIGSA in % ([14]; 80 g/ha) | Post-emergence action against DIGSA in % ([14]; 320 g/ha) | Post-emergence action against AVEFA in % (Avena fatua (AVEFA) [15]; 320 g/ha) | Pre-emergence action against LOLRI in % (Lolium rigidum (LOLRI) [17]) | Pre-emergence action against AVEFA in % (Avena fatua (AVEFA) [18]) | Pre-emergence action against ALOMY ([19]; 80 g/ha) | Post-emergence action against LOLRI in % (Lolium rigidum (LOLRI) [20]) | Pre-emergence action against ABUTH [29] | Pre-emergence action against ECHCG in % [30]
